Results: ChEMBL document CHEMBL1150110, “Three novel protease inhibitors from a natural bloom of the cyanobacterium Microcystis aeruginosa” (J Nat Prod, 2002)
Converted amounts (≈) assume the structure as drawn. The source made the active and inactive calls. The rule behind the calls is not given here.

Assays:
[1] = Inhibition of trypsin at 45.5 ug/mL preincubated for 5 mins before addition of substrate measured after 30 mins
[2] = Inhibition of trypsin preincubated for 5 mins before addition of substrate measured after 30 mins
[3] = Inhibition of chymotrypsin at 45.5 ug/mL preincubated for 5 mins before addition of substrate measured after 30 mins

## CC(C)C[C@@H](NC(=O)[C@@H](O)Cc1ccc(O)cc1)C(=O)N1[C@@H]2C[C@H](O)CC[C@@H]2C[C@H]1C(N)=O
[1]
  inhibition: 15%

## CC[C@H](C)[C@@H]1NC(=O)[C@H](Cc2ccc(O)cc2)N(C)C(=O)[C@H](Cc2ccccc2)N2C(=O)[C@H](CC[C@H]2O)NC(=O)[C@H](CCCNC(=N)N)NC(=O)[C@@H](NC(=O)[C@H](CC(=O)O)NC(C)=O)[C@@H](C)OC1=O [MICROPEPTIN E1964]
[2]
  IC50: 4.2 µg/mL (≈ 4.35 µM)
[3]
  Activity: inactive

## CCCC(=O)N[C@@H](CC(=O)O)C(=O)N[C@@H]1C(=O)N[C@@H](CCCNC(=N)N)C(=O)N[C@H]2CC[C@@H](O)N(C2=O)[C@@H](Cc2ccccc2)C(=O)N(C)[C@@H](Cc2ccc(O)cc2)C(=O)N[C@@H]([C@@H](C)CC)C(=O)O[C@@H]1C [MICROPEPTIN EI992]
[2]
  IC50: 3.8 µg/mL (≈ 3.83 µM)
[3]
  Activity: inactive
